The record followed here is ChEMBL document CHEMBL4364281, “Design of wogonin-inspired selective cyclin-dependent kinase 9 (CDK9) inhibitors with potent in vitro and in vivo antitumor activity” (Eur J Med Chem, 2019).

Values after ≈ are worked out from the molar mass of the structure shown. Active and inactive are the calls of the source. No cut-off for these calls is given here. A value given as a limit tells only on which side of the number the result lay.

The first series has as its system MV4-11. Kind of series: Antitumor activity against human MV4-11 cells xenografted in BALB/c mouse assessed as reduction in tumour growth at 5 mg/kg, iv administered every other day for 21 days.
Settings: not given
The class given is functional, organism-based.
As for `COc1cccc2c1C(=O)c1c(O)c3c(c(O)c1C2=O)C[C@@](O)(C(=O)CO)C[C@@H]3O[C@H]1C[C@H](N)[C@H](O)[C@H](C)O1`, the inhibition entry is “Active”.

In a further series the target is CDK9/cyclin T1 (Homo sapiens, UniProt P50750).
Sequence of CDK9/cyclin T1 (O60563 whole entry): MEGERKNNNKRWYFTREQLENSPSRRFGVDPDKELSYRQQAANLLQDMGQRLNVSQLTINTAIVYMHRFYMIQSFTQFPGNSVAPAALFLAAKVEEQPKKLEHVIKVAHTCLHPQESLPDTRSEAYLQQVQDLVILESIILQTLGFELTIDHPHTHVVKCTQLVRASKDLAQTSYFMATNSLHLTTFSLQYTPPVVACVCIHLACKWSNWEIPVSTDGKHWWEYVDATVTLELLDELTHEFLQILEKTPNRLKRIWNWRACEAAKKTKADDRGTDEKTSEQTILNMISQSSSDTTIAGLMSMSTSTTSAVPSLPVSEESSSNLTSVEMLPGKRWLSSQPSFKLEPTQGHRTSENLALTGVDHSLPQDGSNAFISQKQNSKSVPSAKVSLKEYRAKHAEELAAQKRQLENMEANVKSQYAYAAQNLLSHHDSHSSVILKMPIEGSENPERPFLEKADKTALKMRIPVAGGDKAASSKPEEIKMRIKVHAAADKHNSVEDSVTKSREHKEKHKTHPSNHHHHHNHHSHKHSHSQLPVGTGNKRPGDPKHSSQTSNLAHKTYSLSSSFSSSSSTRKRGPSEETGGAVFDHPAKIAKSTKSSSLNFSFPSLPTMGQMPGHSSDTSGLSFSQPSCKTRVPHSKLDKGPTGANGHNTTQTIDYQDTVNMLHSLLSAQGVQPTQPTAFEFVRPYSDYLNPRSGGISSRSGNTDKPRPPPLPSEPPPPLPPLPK
Sequence of CDK9/cyclin T1 (P50750 whole entry): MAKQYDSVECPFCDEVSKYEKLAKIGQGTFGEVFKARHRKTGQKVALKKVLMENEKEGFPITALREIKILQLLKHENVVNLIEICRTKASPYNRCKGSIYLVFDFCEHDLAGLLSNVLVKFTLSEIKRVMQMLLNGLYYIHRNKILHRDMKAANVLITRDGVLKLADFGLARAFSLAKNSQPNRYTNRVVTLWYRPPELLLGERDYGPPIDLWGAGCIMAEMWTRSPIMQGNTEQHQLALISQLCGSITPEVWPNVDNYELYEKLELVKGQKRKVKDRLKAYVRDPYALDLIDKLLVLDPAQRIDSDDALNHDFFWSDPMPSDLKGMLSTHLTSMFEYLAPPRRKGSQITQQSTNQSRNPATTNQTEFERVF
Assay: not given
Settings: not given
The molecule `Cc1n[nH]c(C)c1Oc1c(O)cc(O)c2c(=O)cc(-c3ccc(N4CCNCC4)cc3)oc12` came in with an IC50 of 0.0108 µM.
Consider `CC(C)Oc1c(O)cc(O)c2c(=O)cc(-c3ccc(N4CCN(C)CC4)cc3)oc12`, for which 0.179 µM corresponded to half-maximal inhibition (IC50).
`Cc1n[nH]c(C)c1Oc1c(O)cc(O)c2c(=O)cc(-c3ccc(N4CCN(C)CC4)cc3)oc12` yielded an IC50 of 0.0127 µM.
As to `CC(C)Oc1c(O)cc(O)c2c(=O)cc(-c3ccc(N4CCNCC4)cc3)oc12`, the IC50 amounted to 0.0941 µM.

Another series deals with CDK2/Cyclin A2 (Homo sapiens, UniProt P24941).
Assay: not given
Settings: not given
In turn, `Cc1n[nH]c(C)c1Oc1c(O)cc(O)c2c(=O)cc(-c3ccc(N4CCNCC4)cc3)oc12` showed an IC50 of 1.04 µM.
With `Cc1n[nH]c(C)c1Oc1c(O)cc(O)c2c(=O)cc(-c3ccc(N4CCN(C)CC4)cc3)oc12`, the IC50 was 0.83 µM.

Another series has as its target CDK2/Cyclin A2 (Homo sapiens, UniProt P24941+P20248).
Assay: not given
Settings: not given
Regarding `CC(C)Oc1c(O)cc(O)c2c(=O)cc(-c3ccc(N4CCN(C)CC4)cc3)oc12`, the IC50 result is on record as “Not Active”.
Regarding `CC(C)Oc1c(O)cc(O)c2c(=O)cc(-c3ccc(N4CCNCC4)cc3)oc12`, the IC50 entry was “Not Active”.

The test system of the next series is HepG2. Briefly: cells. To be noted: Homo sapiens, HepG2, 72 h.
Description: Antiproliferative activity against human HepG2 cells assessed as reduction in cell viability after 72 hrs by MTT assay
Consider `O=c1cc(-c2ccc(N3CCNCC3)cc2)oc2c(OC3CCCC3)c(O)cc(O)c12`, for which it took 5.3 µM to reach half-maximal inhibition (IC50).
The same measure, in the same setting: next, `Cc1n[nH]c(C)c1Oc1c(O)cc(O)c2c(=O)cc(-c3ccc(N4CCNCC4)cc3)oc12`: 8.5 µM; `COc1c(O)cc(O)c2c(=O)cc(-c3cccc(N4CCNCC4)c3)oc12`: 9.9 µM.
`COc1c(O)cc(O)c2c(=O)cc(-c3ccc(N4CCCNCC4)cc3)oc12` gave an IC50 of 18.2 µM.
Still for that read-out and setting: the value for `O=c1cc(-c2ccc(N3CCNCC3)cc2)oc2c(OCc3ccco3)c(O)cc(O)c12` was 8.3 µM; that for `CC(C)Oc1c(O)cc(O)c2c(=O)cc(-c3ccc(N4CCN(C)CC4)cc3)oc12` was 14.8 µM; that for `CN1CCN(c2ccc(-c3cc(=O)c4c(O)cc(O)c(OC5CCNC5)c4o3)cc2)CC1` (stereo not given) was more than 100 µM.
On to `CN1CCC(Oc2c(O)cc(O)c3c(=O)cc(-c4ccc(N5CCN(C)CC5)cc4)oc23)CC1`, for which the IC50 came to 6.7 µM.
The same measure, in the same setting: next, `COc1c(O)cc(O)c2c(=O)cc(-c3cccc(Br)c3)oc12`: 38.2 µM.
As for `CCN(CC)c1ccc(-c2cc(=O)c3c(O)cc(O)c(OC)c3o2)cc1`, 6.4 µM corresponded to half-maximal inhibition (IC50).
In the case of `COc1c(O)cc(O)c2c(=O)cc(-c3ccc(N4CCOCC4)cc3)oc12`, it took 78.3 µM to reach half-maximal inhibition (IC50).
The molecule `COc1c(O)cc(O)c2c(=O)cc(-c3ccccc3C(F)(F)F)oc12` yielded an IC50 of more than 100 µM.
For the molecule `Cc1n[nH]c(C)c1Oc1c(O)cc(O)c2c(=O)cc(-c3ccc(N4CCN(C)CC4)cc3)oc12`, the IC50 is 6.3 µM.
Same read-out and setting: next, `COc1c(O)cc(O)c2c(=O)cc(-c3cccc(N4CCCNCC4)c3)oc12`: 21.7 µM; `CC(C)Oc1c(O)cc(O)c2c(=O)cc(-c3ccc(N4CCNCC4)cc3)oc12`: 18 µM; `COc1c(O)cc(O)c2c(=O)cc(-c3cccc(N4CCOCC4)c3)oc12`: more than 100 µM.
As for `O=c1cc(-c2ccc(N3CCNCC3)cc2)oc2c(OC3CCCCC3)c(O)cc(O)c12`, the midpoint of inhibition, the IC50, lay at 22.8 µM.
In turn, `COc1c(O)cc(O)c2c(=O)cc(-c3cccc(N4CCN(C)CC4)c3)oc12` came in with an IC50 of 13.1 µM.
On the same count and under the same terms, the value for `CN1CCC(Oc2c(O)cc(O)c3c(=O)cc(-c4ccc(N5CCNCC5)cc4)oc23)CC1` was 39.4 µM; that for `COc1c(O)cc(O)c2c(=O)cc(-c3cccc(C(F)(F)F)c3)oc12` was more than 100 µM.
The same measure, in the same setting: next, `O=c1cc(-c2ccc(N3CCNCC3)cc2)oc2c(OC3CCNC3)c(O)cc(O)c12` (stereo not given): more than 100 µM; `COc1c(O)cc(O)c2c(=O)cc(-c3ccc(N4CCCC4)cc3)oc12`: more than 100 µM.
In turn, `CN1CCN(c2ccc(-c3cc(=O)c4c(O)cc(O)c(OCc5ccco5)c4o3)cc2)CC1` showed an IC50 of 7 µM.
`COc1c(O)cc(O)c2c(=O)cc(-c3ccccc3Br)oc12`: the IC50 is 33.5 µM.
For the molecule `COc1c(O)cc(O)c2c(=O)cc(-c3ccc(N4CCN(C)CC4)cc3)oc12`, inhibition was half-maximal at 6.6 µM (IC50).
The molecule `CN1CCN(c2ccc(-c3cc(=O)c4c(O)cc(O)c(OC5CCCC5)c4o3)cc2)CC1` gave an IC50 of 15.8 µM.
Molecule `CN1CCN(c2ccc(-c3cc(=O)c4c(O)cc(O)c(Oc5c[nH][nH]c5=O)c4o3)cc2)CC1` returned an IC50 of 8.1 µM.
`COc1c(O)cc(O)c2c(=O)cc(-c3ccc([N+](=O)[O-])cc3)oc12` returned an IC50 of more than 100 µM.
On to `COc1c(O)cc(O)c2c(=O)cc(-c3ccc(N4CCNCC4)cc3)oc12`, for which the concentration for half-maximal inhibition (IC50) is 17.9 µM.
`CN1CCN(c2ccc(-c3cc(=O)c4c(O)cc(O)c(OC5CCCCC5)c4o3)cc2)CC1` gave an IC50 of 27.8 µM.
Still for that read-out and setting: the value for `COc1c(O)cc(O)c2c(=O)cc(-c3ccccc3Cl)oc12` was more than 100 µM.

For a further series, the system named is A549. Kind of series: cells. To be noted: Homo sapiens, A549, 72 h.
Description: Antiproliferative activity against human A549 cells assessed as reduction in cell viability after 72 hrs by MTT assay
Take `Cc1n[nH]c(C)c1Oc1c(O)cc(O)c2c(=O)cc(-c3ccc(N4CCNCC4)cc3)oc12`: the IC50 was determined as 5.5 µM.
Regarding `CC(C)Oc1c(O)cc(O)c2c(=O)cc(-c3ccc(N4CCN(C)CC4)cc3)oc12`, inhibition was half-maximal at 4.1 µM (IC50).
In turn, `Cc1n[nH]c(C)c1Oc1c(O)cc(O)c2c(=O)cc(-c3ccc(N4CCN(C)CC4)cc3)oc12` had a half-maximal inhibitory concentration (IC50) of 2.5 µM.
With `CC(C)Oc1c(O)cc(O)c2c(=O)cc(-c3ccc(N4CCNCC4)cc3)oc12`, 5.5 µM corresponded to half-maximal inhibition (IC50).

The test system of the next series is HCT-116. Kind of series: cells. To be noted: Homo sapiens, HCT-116, 72 h.
Description: Antiproliferative activity against human HCT116 cells assessed as reduction in cell viability after 72 hrs by MTT assay
In the case of `Cc1n[nH]c(C)c1Oc1c(O)cc(O)c2c(=O)cc(-c3ccc(N4CCNCC4)cc3)oc12`, the IC50 is 4.8 µM.
Molecule `CC(C)Oc1c(O)cc(O)c2c(=O)cc(-c3ccc(N4CCN(C)CC4)cc3)oc12` registered an IC50 of 12.8 µM.
In the case of `Cc1n[nH]c(C)c1Oc1c(O)cc(O)c2c(=O)cc(-c3ccc(N4CCN(C)CC4)cc3)oc12`, the IC50 was 3.3 µM.
`CC(C)Oc1c(O)cc(O)c2c(=O)cc(-c3ccc(N4CCNCC4)cc3)oc12` yielded an IC50 of 3.4 µM.

The next series deals with MV4-11. Briefly: cells. To be noted: Homo sapiens, MV4-11, 72 h.
Description: Antiproliferative activity against human MV4-11 cells assessed as reduction in cell viability after 72 hrs by MTT assay
Molecule `Cc1n[nH]c(C)c1Oc1c(O)cc(O)c2c(=O)cc(-c3ccc(N4CCNCC4)cc3)oc12` registered an IC50 of 4.4 µM.
With `CC(C)Oc1c(O)cc(O)c2c(=O)cc(-c3ccc(N4CCN(C)CC4)cc3)oc12`, 6.3 µM corresponded to half-maximal inhibition (IC50).
As for `Cc1n[nH]c(C)c1Oc1c(O)cc(O)c2c(=O)cc(-c3ccc(N4CCN(C)CC4)cc3)oc12`, the IC50 was 2.2 µM.
Regarding `CC(C)Oc1c(O)cc(O)c2c(=O)cc(-c3ccc(N4CCNCC4)cc3)oc12`, the IC50 is 6.1 µM.

Test system in another series: not listed separately
Kind of series: physchem. The settings on record: methanesulfonic acid buffer, pH 4.5.
Description: Solubility of compound in methanesulfonic acid buffer at pH 4.5
`Cc1n[nH]c(C)c1Oc1c(O)cc(O)c2c(=O)cc(-c3ccc(N4CCNCC4)cc3)oc12` gave a solubility of 30 µg/mL (≈ 66.9 µM).

Test system in the next series: not listed separately
Briefly: physchem.
Settings: not given
In turn, `Cc1n[nH]c(C)c1Oc1c(O)cc(O)c2c(=O)cc(-c3ccc(N4CCNCC4)cc3)oc12` displayed a solubility of 1 µg/mL (≈ 2.23 µM).

Test system in a further series: not listed separately
Briefly: physchem. To be noted: buffer, pH 7.4.
Description: Hydrophobicity, log D of compound at pH 7.4
`Cc1n[nH]c(C)c1Oc1c(O)cc(O)c2c(=O)cc(-c3ccc(N4CCNCC4)cc3)oc12` had a logD of 2.91.

In general, IC50 refers to the point on the concentration scale where inhibition reaches its midpoint. Read a low IC50 as greater potency in that assay. Broadly, the solubility is how much of the substance goes into solution per volume. Read a low solubility as little dissolved substance. The term logD denotes lipophilicity at a set pH, counting ionised and neutral species. A high value points to a more lipophilic compound.
